Test results as given in US6734185B2, “Pyrrolo[3,4-d]pyrimidines as corticotropin releasing factor (CRF) antagonists” (Bristol-Myers Squibb Pharma Company, priority 2000, dated 2004).
Counter-ions that a name gives are not always drawn.

melting point [°C] | Structure (SMILES)
218 to 222 | Cc1nc(NC(C2CC2)C2CC2)c2c(C)[nH]c(-c3ccc(Cl)cc3Cl)c2n1 (as salt: HCl) [Example 6]
184 to 185 | CCC(CC)Nc1nc(C)nc2c1C(C)(O)N=C2c1ccc(Cl)cc1Cl (centres unmarked) [Example 7, 7-(2,4-Dichloro-phenyl)-4-(1-ethyl-propylamino)-2,5-dimethyl-5H-pyrrolo[3,4-d]pyrimidin-5-ol]
